Measured values as given in patent US8129355B2, “Ketone ligands for modulating the expression of exogenous genes via an ecdysone receptor complex” (priority 2002, dated 2012).

Experiments:
[1] = molecular target: T1, GAL4 DBD (1-147)-CfEcR(DEF)/VP16AD-βRXREF-LmUSPEF (Choristoneura fumiferana, UniProt O77240); assay: 27-63 assay: luciferase reporter gene expression in stable CHO cell clone 27-63; conditions: for Fold Induction Average, 27-63 Assay (33 μM): single dose 33 μM, RLU ligand treated / RLU DMSO treated cells; for 27-63 Rel Max FI: maximum fold induction at any concentration relative to that of GS-E ligand; for CC50: read-out: 27-63 LC50, average, dose response, three-parameter logistic model
T1 sequence (O77240 191-513): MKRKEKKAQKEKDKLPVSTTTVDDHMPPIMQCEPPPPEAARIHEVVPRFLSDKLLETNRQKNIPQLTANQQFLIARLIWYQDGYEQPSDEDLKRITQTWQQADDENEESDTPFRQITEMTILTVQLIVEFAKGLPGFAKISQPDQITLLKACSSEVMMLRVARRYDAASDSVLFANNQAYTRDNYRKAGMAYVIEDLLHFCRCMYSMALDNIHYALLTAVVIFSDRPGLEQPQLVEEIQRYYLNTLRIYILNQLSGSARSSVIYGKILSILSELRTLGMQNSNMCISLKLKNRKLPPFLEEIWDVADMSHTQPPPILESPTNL
T1 sequence (P28702 296-455 partner limits assumed): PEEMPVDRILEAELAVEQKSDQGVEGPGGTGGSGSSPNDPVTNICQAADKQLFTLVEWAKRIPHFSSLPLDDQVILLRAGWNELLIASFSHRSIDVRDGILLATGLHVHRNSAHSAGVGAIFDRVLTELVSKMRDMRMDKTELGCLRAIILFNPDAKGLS
Description: GAL4 DBD (1-147)-CfEcR(DEF)/VP16AD-βRXREF-LmUSPEF: The wild-type D, E, and F domains from spruce budworm Choristoneura fumiferana EcR (“CfEcR-DEF”; SEQ ID NO: 1) were fused to a GAL4 DNA binding domain (“Gal4 DBD1-147”; nucleotides 31 to 471 of SEQ ID NO: 2) and placed under the control of a phosphoglycerate kinase promoter (“PGK”; SEQ ID NO: 3). Helices 1 through 8 of the EF domains from Homo sapiens RXRβ and helices 9 through 12 of the EF domains of Locusta migratoria Ultraspiracle Protein (“HsRXRβ-EF-LmUSP-EF”; SEQ ID NO: 4) were fused to the transactivation domain from VP16 (“VP16AD”; SEQ ID NO: 5) and placed under the control of an elongation factor-1α promoter (“EF-1α”; SEQ ID NO: 6). Five consensus GAL4 response element binding sites (“5XGAL4RE”; comprising 5 copies of a GAL4RE comprising SEQ ID NO: 7) were fused to a synthetic TATA minimal promoter (SEQ ID NO: 8) and placed upstream of the luciferase reporter gene (SEQ ID NO: 9).
CHO cells were transiently transfected with transcription cassettes for GAL4 DBD (1-147) CfEcR(DEF) and for VP16AD βRXREF-LmUSPEF controlled by ubiquitously active cellular promoters (PGK and EF-1α, respectively) on a single plasmid. Stably transfected cells were selected by Zeocin resistance. Individually isolated CHO cell clones were transiently transfected with a GAL4 RE-luciferase reporter (pFR Luc). 27-63 clone was selected using Hygromycin.
Cells were trypsinized and diluted to a concentration of 2.5×10^4 cells mL. 100 μL of cell suspension was placed in each well of a 96 well plate and incubated at 37° C. under 5% CO2 for 24 h. Ligand stock solutions were prepared in DMSO and diluted 300 fold for all treatments. Dose response testing consisted of 8 concentrations ranging from 33 μM to 0.01 μM.
Luciferase reporter gene expression was measured 48 h after cell treatment using Bright-Glo™ Luciferase Assay System from Promega (E2650). Luminescence was detected at room temperature using a Dynex MLX microtiter plate luminometer.
Fold inductions were calculated from single dose testing by dividing relative light units (RLU) in ligand treated cells by RLU in DMSO treated cells. BC50s were calculated from dose response data using a three-parameter logistic model.

[2] = molecular target: T2, Bombyx mori EcR (VP16 fusion, switch construct CVBE) with 6XEcRE LacZ reporter (Bombyx mori, UniProt P49881); assay: Z3 assay: β-galactosidase (LacZ) reporter gene fold induction in stably transformed human 293 kidney cells (clone Z3); assay type: cell-based; conditions: for CC50: average, dose response, three-parameter logistic model, read-out: Z3 LC50; for Z3 Rel Max FI: maximum fold induction at any concentration relative to that of GS-E ligand
T2 construct: expressed in transfected cells; host or cells: Human 293 kidney (HEK-293) cells, retrovirally infected, clone Z3
T2 sequence (P49881 86-606 limits assumed): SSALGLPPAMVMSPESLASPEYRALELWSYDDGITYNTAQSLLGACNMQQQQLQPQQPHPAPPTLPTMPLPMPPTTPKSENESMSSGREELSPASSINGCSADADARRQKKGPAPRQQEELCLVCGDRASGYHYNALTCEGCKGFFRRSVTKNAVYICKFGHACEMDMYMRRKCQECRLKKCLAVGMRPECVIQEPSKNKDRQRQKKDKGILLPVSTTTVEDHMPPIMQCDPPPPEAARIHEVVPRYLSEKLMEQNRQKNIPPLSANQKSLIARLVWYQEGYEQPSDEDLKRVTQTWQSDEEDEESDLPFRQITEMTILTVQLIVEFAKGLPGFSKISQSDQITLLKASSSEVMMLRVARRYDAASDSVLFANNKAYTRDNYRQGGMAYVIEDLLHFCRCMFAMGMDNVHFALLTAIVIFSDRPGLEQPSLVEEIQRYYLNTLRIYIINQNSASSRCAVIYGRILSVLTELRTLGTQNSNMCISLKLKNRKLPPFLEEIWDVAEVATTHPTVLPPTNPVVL
T2 sequence (P19793 1-462 partner): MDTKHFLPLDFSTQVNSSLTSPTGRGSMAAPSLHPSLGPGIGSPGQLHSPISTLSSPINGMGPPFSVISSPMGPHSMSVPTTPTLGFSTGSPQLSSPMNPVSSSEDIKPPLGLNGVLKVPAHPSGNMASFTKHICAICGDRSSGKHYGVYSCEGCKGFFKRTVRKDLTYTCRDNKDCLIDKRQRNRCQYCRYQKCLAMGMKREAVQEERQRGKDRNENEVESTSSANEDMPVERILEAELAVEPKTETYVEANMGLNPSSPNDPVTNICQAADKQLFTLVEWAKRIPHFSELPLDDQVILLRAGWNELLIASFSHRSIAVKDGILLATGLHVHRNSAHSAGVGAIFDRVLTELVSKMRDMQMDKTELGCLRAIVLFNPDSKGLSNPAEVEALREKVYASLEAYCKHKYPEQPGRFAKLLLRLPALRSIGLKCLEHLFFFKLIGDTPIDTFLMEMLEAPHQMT
Outline: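 β-Galactosidase read 48 h after dosing by bioluminescent assay; ligand added at 33 μM with DMSO held at 0.03%. The cells are stable 293 clone Z3, expressing a CMV-driven VP16 fusion of Bombyx mori EcR residues 26-546 plus six EcRE copies upstream of lacZ.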

[3] = single dose 33 μM, ligand treated / DMSO treated cells

| Compound | Fold Induction Average, 27-63 Assay (33 μM) [1] | Fold Induction Average, Z3 Assay (33 μM) [2, 3] | fold induction at 33 µM ([1]; CHO, read-out: Fold Induction Average, 27-63 Assay (33 μM)) | fold induction at 33 µM ([2]; single dose 33 μM, ligand treated / DMSO treated cells, read-out: Fold Induction Average, Z3 Assay (33 μM)) | 27-63 Rel Max FI [1] | CC50 [1] [µM] | CC50 [2] [µM] | Z3 Rel Max FI [2] |
| --- | --- | --- | --- | --- | --- | --- | --- | --- |
| COc1cccc(C(=O)NC2(C(=O)c3cc(C)cc(C)c3)CCCN(C(=O)OC(C)(C)C)C2)c1C (racemic) [Example 146] | 1 | 1 | – | – | – | – | – | – |
| COc1cccc(C(=O)NC2(C(=O)c3cc(C)cc(C)c3)CCNCC2)c1C [Example 147] | – | – | 1 | 1 | – | – | – | – |
| O=C(NC1(C(=O)c2ccccc2)CCCC1)c1ccc2c(c1)OCO2 [Example 142] | – | – | – | – | 0.00 | > 33 | > 33 | 0.00 |
| COc1cccc(C(=O)NC2(C(=O)c3cc(C)cc(C)c3)CCN(CC#N)CC2)c1C [Example 159] | 1 | 2 | – | – | – | – | – | – |
| CCOC(=O)C(=O)N1CCC(NC(=O)c2cccc(OC)c2C)(C(=O)c2cc(C)cc(C)c2)CC1 [Example 150] | 1 | 3 | – | – | – | – | – | – |
| Cc1cc(C)cc(C(=O)C2(NC(=O)c3ccc4c(c3)OCCO4)CCCCC2)c1 [Example 82] | – | – | – | – | 0.84 | 1.78 | 1.99 | 0.79 |
| COc1cccc(C(=O)NC2(C(=O)c3cc(C)cc(C)c3)CCCNC2)c1C (racemic) [Example 148] | 2 | 7 | – | – | – | – | – | – |
| Cc1cc(C)cc(C(=O)C2(NC(=O)c3ccc4c(c3)OCCO4)CCCC2)c1 [Example 86] | – | – | – | – | 0.80 | 4.88 | 5.49 | 0.61 |
| CCc1c(C(=O)NC2(C(=O)c3cc(C)cc(C)c3)CCCCC2)ccc2c1OCCO2 [Example 80] | – | – | – | – | 0.91 | 0.39 | 0.74 | 0.89 |
| COc1cccc(C(=O)NC2(C(=O)c3cc(C)cc(C)c3)CCCN(C(C)=O)C2)c1C (racemic) [Example 153] | 1 | 3 | – | – | – | – | – | – |
| CCNC(=O)N1CCCC(NC(=O)c2cccc(OC)c2C)(C(=O)c2cc(C)cc(C)c2)C1 (racemic) [Example 160] | 1 | 1 | – | – | – | – | – | – |
| CCc1c(C(=O)NC2(C(=O)c3cc(C)cc(C)c3)CCCC2)ccc2c1OCCO2 [Example 84] | – | – | – | – | 0.82 | 1.02 | 1.59 | 0.91 |
| COc1cccc(C(=O)NC2(C(=O)c3cc(C)cc(C)c3)CCCN(S(C)(=O)=O)C2)c1C (racemic) [Example 155] | 2 | 4 | – | – | – | – | – | – |
| Cc1cc(C)cc(C(=O)C2(NC(=O)c3ccc4c(c3)COCO4)CCCC2)c1 [Example 87] | – | – | – | – | 0.53 | 18.7 | 9.46 | 0.17 |
| Cc1cc(C)cc(C(=O)C2(NC(=O)c3ccc4c(c3)COCO4)CCCCC2)c1 [Example 83] | – | – | – | – | 0.70 | 7.06 | 6.15 | 0.41 |
| Cc1cc(C)cc(C(=O)C2(NC(=O)c3ccc4c(c3C)OCO4)CCCCC2)c1 [Example 81] | – | – | – | – | 0.91 | 3.22 | 3.68 | 0.81 |
| Cc1ccccc1C(=O)NC1(C(=O)c2ccccc2)CCCC1 [Example 140] | – | – | – | – | 0.00 | > 33 | > 33 | 0.00 |
| COc1cccc(C(=O)NC2(C(=O)c3cc(C)cc(C)c3)CCN(S(C)(=O)=O)CC2)c1C [Example 151] | 1 | 3 | – | – | – | – | – | – |
| Cc1cc(C)cc(C(=O)C2(NC(=O)c3ccc4c(c3C)OCO4)CCCC2)c1 [Example 85] | – | – | – | – | 0.94 | 3.86 | 4.76 | 0.67 |
| CCOC(=O)CN1CCC(NC(=O)c2cccc(OC)c2C)(C(=O)c2cc(C)cc(C)c2)CC1 [Example 152] | 3 | 6 | – | – | – | – | – | – |
